Results on 18 compounds are retold here after patent US20260078122A1, “INDAZOLE COMPOUNDS AS PKMYT1 KINASE INHIBITORS” (Hoffmann-La Roche Inc., priority 2023, published 2026).

Like-named read-outs stand apart in the source and are kept apart here.

What is called IC50 is the midpoint of a concentration-inhibition curve.

Series [1] has as its target T1, recombinant human Myt1 (full length PKMYT1) (Homo sapiens, UniProt Q99640).
T1 sequence (Q99640 1-499): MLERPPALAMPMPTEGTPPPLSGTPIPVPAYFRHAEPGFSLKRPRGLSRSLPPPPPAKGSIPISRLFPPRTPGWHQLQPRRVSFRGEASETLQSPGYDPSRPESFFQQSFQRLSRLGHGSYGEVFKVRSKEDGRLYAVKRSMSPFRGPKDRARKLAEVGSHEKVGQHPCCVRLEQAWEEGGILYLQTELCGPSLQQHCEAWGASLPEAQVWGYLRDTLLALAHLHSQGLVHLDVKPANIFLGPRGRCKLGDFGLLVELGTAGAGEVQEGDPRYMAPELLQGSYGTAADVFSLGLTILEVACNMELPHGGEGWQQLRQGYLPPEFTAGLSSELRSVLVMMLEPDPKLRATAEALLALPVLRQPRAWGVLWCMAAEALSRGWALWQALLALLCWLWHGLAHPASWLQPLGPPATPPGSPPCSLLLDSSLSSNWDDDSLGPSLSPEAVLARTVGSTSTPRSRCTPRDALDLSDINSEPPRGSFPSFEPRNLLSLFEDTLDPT
Description: ADP-Glo assay (Myt1 kinase activity). For orientation: ADP-Glo first removes unused ATP, then detects ADP through luciferase.

Series [2] is described as follows: Human hepatocyte stability assay. The format is in vitro ADME. The settings on record: 1 μM compound, 1*10^6 cells/mL, 2-120 min.
Series [3] can be described thus: GSH adduct screening assay. The series is classed as in vitro ADME, human. Further details: key: GSH adducts found (Flag); or not (No Flag). The settings on record: 20 μM compound, HLM 1 mg/ml, 5 mM GSH, 1 mM NADPH, 60 minutes at 37° C.
The nature of series [4]: Human microsome stability assay. The note with it: 1 μM compound, 0.5 mg/mL liver microsomal protein, 1 mM NADPH, 37° C., 0-30 minutes.
For series [5] the following is noted: microsomes, pH 7.4.

With `Cc1c(CC(F)(F)F)cnc2c(-c3ccc(F)c4[nH]ncc34)c(N)c(=O)[nH]c12` [Example 133, 3-Amino-4-(7-fluoro-1H-indazol-4-yl)-8-methyl-7-(2,2,2-trifluoroethyl)-1H-1,5-naphthyridin-2-one], the IC50 in series [1] is less than 10 nM. In addition, the “Clearance of Human hepatocyte (μL/min/10^6 cell)” value (“Clearance of Human hepatocyte” below) in series [2] came to 1.7 μL/min/10^6 cell.
Consider `Nc1c(-c2ccc(F)c3[nH]ncc23)c2c(Cl)nc(C3CC3)cc2[nH]c1=O` [Example 163, 3-Amino-5-chloro-7-cyclopropyl-4-(7-fluoro-1H-indazol-4-yl)-1H-1,6-naphthyridin-2-one], for which the half-inhibitory concentration (IC50) in series [1] was less than 10 nM. For the same compound, the “Clearance of Human hepatocyte” value in series [2] is listed as less than 1 μL/min/10^6 cell.
In the case of `Cc1cc2[nH]c(=O)c(N)c(-c3ccc(F)c4[nH]ncc34)c2nc1Cl` [Example 003, 3-Amino-6-chloro-4-(7-fluoro-1H-indazol-4-yl)-7-methyl-1H-1,5-naphthyridin-2-one], the GSH adduct result in series [3] is “No Flag”. For the same compound, the “Clearance of Human microsome” value in series [4] turned out to be 8.88 mL/min/kg.
In the case of `Cc1cnc2c(-c3ccc(F)c4[nH]ncc34)c(N)c(=O)[nH]c2c1` [Example 002, 3-Amino-4-(7-fluoro-1H-indazol-4-y1)-7-methyl-1H-1,5-naphthyridin-2-one], the “Clearance of Human hepatocyte” value in series [2] is 1.3 μL/min/10^6 cell.
Turning to `Cc1nc(Cl)c2c(-c3ccc(F)c4[nH]ncc34)c(N)c(=O)[nH]c2c1C` [Example 160, 3-Amino-5-chloro-4-(7-fluoro-1H-indazol-4-yl)-7,8-dimethyl-1H-1,6-naphthyridin-2-one], the GSH adduct result in series [3] was “No Flag”. In series [1], the IC50 was found to be 11.5 nM.
For `Nc1c(-c2ccc(F)c3[nH]ncc23)c2ncc(C3CC3)cc2[nH]c1=O` [Example 015, 3-Amino-7-cyclopropyl-4-(7-fluoro-1H-indazol-4-yl)-1H-1,5-naphthyridin-2-one], the GSH adduct result in series [3] is listed as “No Flag”. Also, the “Clearance of Human hepatocyte” value in series [2] is 2.6 μL/min/10^6 cell. In series [4], the “Clearance of Human microsome” value is recorded as 7.03 mL/min/kg.
For the compound `C#Cc1cnc2c(-c3ccc(F)c4[nH]ncc34)c(N)c(=O)[nH]c2c1C` [Example 124, 3-Amino-7-ethynyl-4-(7-fluoro-1H-indazol-4-yl)-8-methyl-1H-1,5-naphthyridin-2-one], the GSH adduct result in series [3] is listed as “No Flag”. In addition, the half-inhibitory concentration (IC50) in series [1] is less than 10 nM.
As to `[2H]C([2H])([2H])c1cnc2c(-c3ccc(F)c4[nH]ncc34)c(N)c(=O)[nH]c2c1C` [Example 101, 3-Amino-4-(7-fluoro-1H-indazol-4-yl)-8-methyl-7-(trideuteriomethyl)-1H-1,5-naphthyridin-2-one], the “Clearance of Human hepatocyte” value in series [2] is less than 1 μL/min/10^6 cell.
Take `CCOc1cnc(C)c2[nH]c(=O)c(N)c(-c3ccc(F)c4[nH]ncc34)c12` [Example 184, 3-Amino-5-ethoxy-4-(7-fluoro-1H-indazol-4-yl)-8-methyl-1H-1,7-naphthyridin-2-one]: the half-inhibitory concentration (IC50) in series [1] was less than 10 nM. Also, the “Clearance of Human hepatocyte” value in series [2] came to 1.3 μL/min/10^6 cell. For the same compound, the “Clearance of Human microsome” value in series [4] was determined as 6.20 mL/min/kg.
`Cc1cnc2c(-c3ccc(Cl)c4[nH]ncc34)c(N)c(=O)[nH]c2c1C` [Example 146, 3-Amino-4-(7-chloro-1H-indazol-4-yl)-7,8-dimethyl-1H-1,5-naphthyridin-2-one]: the IC50 in series [1] was less than 10 nM. Further, the “Clearance of Human hepatocyte” value in series [2] worked out at 1.2 μL/min/10^6 cell. Besides, in series [4], the “Clearance of Human microsome” value came to 6.15 mL/min/kg.
The like results for `COc1cnc2c(-c3ccc(F)c4[nH]ncc34)c(N)c(=O)[nH]c2c1C` [Example 136, 3-Amino-4-(7-fluoro-1H-indazol-4-yl)-7-methoxy-8-methyl-1H-1,5-naphthyridin-2-one] were, in that order, 17.3 nM, 1.4 μL/min/10^6 cell and 6.15 mL/min/kg.
The like results for `N#Cc1nc(C2CC2)cc2[nH]c(=O)c(N)c(-c3ccc(F)c4[nH]ncc34)c12` [Example 167, 3-Amino-7-cyclopropyl-4-(7-fluoro-1H-indazol-4-yl)-2-oxo-1H-1,6-naphthyridine-5-carbonitrile] were, in that order, 14.5 nM, less than 1 μL/min/10^6 cell and 6.80 mL/min/kg.
Regarding `Cc1ncc(OCC(F)(F)F)c2c(-c3ccc(F)c4[nH]ncc34)c(N)c(=O)[nH]c12` [Example 183, 3-Amino-4-(7-fluoro-1H-indazol-4-yl)-8-methyl-5-(2,2,2-trifuoroethoxy)-1H-1,7-naphthyridin-2-one], the 50% inhibitory concentration (IC50) in series [1] is 13.4 nM. The “Clearance of Human hepatocyte” value in series [2] was less than 1 μL/min/10^6 cell. Also, in series [4], the “Clearance of Human microsome” value worked out at 6.20 mL/min/kg.
The like results for `Cc1c(Cl)cnc2c(-c3ccc(F)c4[nH]ncc34)c(N)c(=O)[nH]c12` [Example 099, 3-Amino-7-chloro-4-(7-fluoro-1H-indazol-4-yl)-8-methyl-1H-1,5-naphthyridin-2-one] were, in that order, less than 10 nM, less than 1 μL/min/10^6 cell and 6.15 mL/min/kg.
Regarding `COc1cnc(C)c2[nH]c(=O)c(N)c(-c3ccc(F)c4[nH]ncc34)c12` [Example 173, 3-Amino-4-(7-fluoro-1H-indazol-4-yl)-5-methoxy-8-methyl-1H-1,7-naphthyridin-2-one], in series [1], the IC50 turned out to be 15.2 nM. The “Clearance of Human hepatocyte” value in series [2] was less than 1 μL/min/10^6 cell. In series [4], the “Clearance of Human microsome” value was determined as 6.15 mL/min/kg.
On to `Cc1cc2[nH]c(=O)c(N)c(-c3ccc(F)c4[nH]ncc34)c2nc1N1CC2(COC2)C1` [Example 026, 3-Amino-4-(7-fluoro-1H-indazol-4-yl)-7-methyl-6-(2-oxa-6-azaspiro[3.3]heptan-6-yl)-1H-1,5-naphthyridin-2-one], for which the “Clearance of Human microsome” value in series [5] is 8.87 mL/min/kg.
Regarding `Nc1c(-c2ccc(F)c3[nH]ncc23)c2ncc(Cl)cc2[nH]c1=O` [Example 001, 3-Amino-7-chloro-4-(7-fluoro-1H-indazol-4-yl)-1H-1,5-naphthyridin-2-one], the “Clearance of Human hepatocyte” value in series [2] is reported as 2.1 μL/min/10^6 cell.
For the compound `Cc1cc2[nH]c(=O)c(N)c(-c3ccc(F)c4[nH]ncc34)c2nc1C` [Example 017, 3-Amino-4-(7-fluoro-1H-indazol-4-yl)-6,7-dimethyl-1H-1,5-naphthyridin-2-one], in series [2], the “Clearance of Human hepatocyte” value is on record as 1.6 μL/min/10^6 cell.
